Results: patent US20090062273A1, “3-H-pyrazolopyridines and salts thereof, pharmaceutical compositions comprising same, methods of preparing same and uses of same” (priority 2006, published 2009)

Assays:
[1] = target: T1, human insuline receptor (Ins-R) (Homo sapiens, UniProt P06213); assay: InsR HTRF assay (selectivity vs. Tie2 assay 2); assay type: biochemical; settings: IC50 assay 4/IC50 assay 2
T1 construct: GST-tagged recombinant kinase domain of the human insuline receptor; GST; purchased ProQinase, Freiburg, Germany; host or cells: SF-9 cells
T1 sequence (P06213 1023-1298 limits assumed): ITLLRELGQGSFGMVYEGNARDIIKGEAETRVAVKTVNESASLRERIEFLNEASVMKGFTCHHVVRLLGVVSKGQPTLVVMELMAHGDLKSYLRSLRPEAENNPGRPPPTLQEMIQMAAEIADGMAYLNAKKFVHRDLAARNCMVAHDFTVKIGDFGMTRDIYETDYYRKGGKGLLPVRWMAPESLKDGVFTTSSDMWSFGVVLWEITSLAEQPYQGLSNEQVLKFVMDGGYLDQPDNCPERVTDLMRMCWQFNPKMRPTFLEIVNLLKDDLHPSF
Procedure: Inhibitory activity of compounds against the kinase activity of the insulin receptor was quantified employing the Ins-R HTRF assay as described in the following paragraphs.
GST-tagged recombinant kinase domain of the human insuline receptor (Ins-R, purchase from ProQinase, Freiburg, Germany) expressed in SF-9 cells was used as kinase. As substrate for the kinase reaction biotinylated poly-(Glu,Tyr) (Cis biointernational, France) was used.
Ins-R was incubated for 20 min at 22° C. in the presence of different concentrations of test compounds in 5 μl assay buffer [50 mM Hepes/NaOH pH 7, 15 mM MnCl2, 1 mM dithiothreitol, 0.1 μM sodium ortho-vanadate, 0.015% (v/v) PEG20000, 10 μM adenosine-tri-phosphate (ATP), 0.3 μg/ml substrate, 1% (v/v) dimethylsulfoxide]. The concentration of Ins-R was adjusted depending of the activity of the enzyme lot and was chosen appropriate to have the assay in the linear range, typical concentrations were in the range of 10 pg/μL. The reaction was stopped by the addition of 5 μl of a solution of HTRF detection reagents (0.1 μM streptavidine-XLent and 1 nM PT66-Eu-Chelate, an europium-chelate labelled anti-phospho-tyrosine antibody from Perkin Elmer) in an aqueous EDTA-solution (80 mM EDTA, 0.2% (w/v) bovine serum albumin in 50 mM HEPES/NaOH pH 7.0).
The resulting mixture was incubated 1 h at 22° C. to allow the binding of the biotinylated phosphorylated peptide to the streptavidine-XLent and the PT66-Eu-Chelate. Subsequently the amount of phosphorylated substrate was evaluated by measurement of the resonance energy transfer from the PT66-Eu-Chelate to the streptavidine-XLent. Therefore, the fluorescence emissions at 620 nm and 665 nm after excitation at 350 nm was measured in a HTRF reader, e.g. a Rubystar (BMG Labtechnologies, Offenburg, Germany) or a ViewLux (Perkin-Elmer). The ratio of the emissions at 665 nm and at […] was taken as the measure for the amount of phosphorylated substrate. The data were normalised (enzyme reaction without inhibitor=0% inhibition, all other assay components but no enzyme=100% inhibition) and IC50 values were calculated by a 4 parameter fit using an inhouse software.

Tie2 = Tie2 (Homo sapiens, UniProt Q02763); assay: Tie2 ELISA assay (cellular Tie2 autophosphorylation); assay type: cell-based; design: expressed in transfected cells; host or cells: CHO (CHO Tie2/DHFR); settings: CHO cells stably transfected with Tie2, stimulated by angiopoietin-2; Tie2 autophosphorylation by sandwich-ELISA; read-out: Tie 2 activity (assay 1)
Chain of Tie2 (Q02763 23-1124, species assumed): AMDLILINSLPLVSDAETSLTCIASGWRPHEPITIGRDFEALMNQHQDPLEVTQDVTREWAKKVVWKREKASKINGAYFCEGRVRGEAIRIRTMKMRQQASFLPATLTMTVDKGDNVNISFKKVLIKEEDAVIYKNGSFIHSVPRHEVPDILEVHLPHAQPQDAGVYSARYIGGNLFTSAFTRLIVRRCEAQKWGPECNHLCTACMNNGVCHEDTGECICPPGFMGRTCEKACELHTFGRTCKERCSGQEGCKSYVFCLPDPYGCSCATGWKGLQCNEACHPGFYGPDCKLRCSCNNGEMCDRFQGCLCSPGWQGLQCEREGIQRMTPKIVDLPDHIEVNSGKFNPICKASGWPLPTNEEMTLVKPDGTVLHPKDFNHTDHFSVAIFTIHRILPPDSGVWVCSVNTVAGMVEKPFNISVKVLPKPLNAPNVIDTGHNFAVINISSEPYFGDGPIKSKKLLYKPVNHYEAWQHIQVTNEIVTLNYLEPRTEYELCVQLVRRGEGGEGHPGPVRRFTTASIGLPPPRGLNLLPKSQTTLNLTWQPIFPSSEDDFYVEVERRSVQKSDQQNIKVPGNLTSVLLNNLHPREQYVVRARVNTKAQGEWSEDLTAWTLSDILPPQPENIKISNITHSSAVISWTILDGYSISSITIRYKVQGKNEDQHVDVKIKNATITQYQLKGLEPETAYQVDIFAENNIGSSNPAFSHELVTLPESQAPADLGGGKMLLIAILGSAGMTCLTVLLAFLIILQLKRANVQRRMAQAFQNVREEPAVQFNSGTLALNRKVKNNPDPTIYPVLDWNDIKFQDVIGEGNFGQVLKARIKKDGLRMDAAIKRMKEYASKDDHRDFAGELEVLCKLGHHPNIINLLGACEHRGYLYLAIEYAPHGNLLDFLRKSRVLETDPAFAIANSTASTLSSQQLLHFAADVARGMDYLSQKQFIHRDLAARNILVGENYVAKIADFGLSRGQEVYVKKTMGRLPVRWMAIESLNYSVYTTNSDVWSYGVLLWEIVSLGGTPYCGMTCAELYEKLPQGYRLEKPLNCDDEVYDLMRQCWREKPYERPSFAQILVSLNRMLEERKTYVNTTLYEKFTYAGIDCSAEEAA
Procedure: Cellular activity of compounds of the present invention as inhibitors of Tie2 kinase activity was measured employing a Tie2 ELISA assay as described in the following paragraphs. Herein CHO cell-cultures, which are stably transfected by known techniques with Tie2 using DHFR deficiency as selection marker, are stimulated by angiopoietin-2. The specific autophosphorylation of Tie2 receptors is quantified with a sandwich-ELISA using anti-Tie2 antibodies for catch and anti-phosphotyrosine antibodies coupled to HRP for detection.
• 96 well tissue culture plate, sterile, Greiner • 96 well FluoroNunc plate MaxiSorp Surface C, Nunc • 96 well plate polypropylene for compound dilution in DMSO • CHO Tie2/DHFR (transfected cells) • PBS−; PBS++, DMSO • MEM alpha Medium with Glutamax-I without Ribonucleosides and Deoxyribonucleosides (Gibco #32561-029) • with 10% FCS after dialysis! and 1% PenStrep • Lysis buffer: 1 Tablet “Complete” protease inhibitor • 1 cap Vanadate (1 mL>40 mg/mL; working solution 2 mM) • ad 50 mL with Duschl-Puffer • pH 7.6 • Anti-Tie2-antibody 1:425 in Coating Buffer pH 9.6 • Stock solution: 1.275 mg/mL>working.: 3 μg/mL • PBST: 2 bottles PBS (10×)+10 ml Tween, fill up with VE-water • RotiBlock 1:10 in VE-water • Anti-Phosphotyrosine HRP-Conjugated 1:10000 in 3% TopBlock • 3% TopBlock in PBST • BM Chemiluminescence ELISA Substrate (POD) • solution B 1:100 solution A • SF9 cell culture medium • Ang2-Fc in SF9 cell culture medium
• Dispense 5×10^4 cells/well/98 μL in 96 well tissue culture plate • Incubate at 37° C./5% CO2 • After 24 h add compounds according to desired concentrations • Add also to control and stimulated values without compounds 2 μL DMSO • And mix for a few min at room temperature • Add 100 μL Ang2-Fc to all wells except control, which receives insect medium • Incubate 20 min at 37° C. • Wash 3× with PBS++ • Add 100 μl Lysis buffer/well and shake a couple of min at room temperature • Store lysates at […] before utilizing for the ELISA
• Coat 96 well FluoroNunc Plate MaxiSorp Surface C with anti-Tie2 mAb 1:425 in Coating buffer pH 9.6; 100 μL/well overnight at 4° C. • Wash 2× with PBST • Block plates with 250 μL/well RotiBlock 1:10 in VE-water • Incubate for 2 h at room temperature or overnight at 4° C. shaking • Wash 2× in PBST • Add thawed lysates to wells and incubate overnight shaking at 4° C. • Wash 2× with PBST • Add 100 μL/well anti-Phosphotyrosine HRP-Conjugated 1:10000 in 3% TopBlock (3% TopBlock in PBST) and incubate overnight under shaking • Wash 6× with PBST • Add 100 μL/well BM Chemiluminescence ELISA Substrate (POD) solutions 1 und 2 (1:100) • Determine luminescence with the LumiCount. Assay 2: Tie-2-Kinase HTRF-Assay without Kinase Preactivation

SMILES | Selectivity vs. InsR [1] [fold] | IC50 (Tie2) [nM]
COCCn1ncc2c(-c3ccc(NC(=O)Nc4cccc(C(F)(F)F)c4)c(F)c3)cncc21 [Example 12.4, 1-{2-Fluoro-4-[1-(2-methoxy-ethyl)-1H-pyrazolo[3,4-c]pyridin-4-yl]-phenyl}-3-(3-trifluoromethyl-phenyl)-urea] | >50 | < 501
CC(C)c1cc(NC(=O)Nc2ccc(-c3cncc4c3cnn4C)cc2F)n(-c2cccc(F)c2)n1 [Example 15.2, 1-[2-Fluoro-4-(1-methyl-1H-pyrazolo[3,4-c]pyridin-4-yl)-phenyl]-3-[2-(3-fluoro-phenyl)-5-isopropyl-2H-pyrazol-3-yl]-urea] | >50 | < 501
Cn1ncc2c(-c3ccc(NC(=O)Nc4cc(C(C)(C)C)nn4-c4ccccc4)cc3)cncc21 [Example 13.4, 1-(5-tert-Butyl-2-phenyl-2H-pyrazol-3-yl)-13-[4-(1-methyl-1H-pyrazolo[3,4-c]pyridin-4-yl)-phenyl]-urea] | >50 | < 501
Cc1cc(-c2cncc3c2cnn3C)ccc1NC(=O)Nc1cccc(C(F)(F)F)c1 [Example 4.1, 1-[2-Methyl-4-(1-methyl-1H-pyrazolo[3,4-c]pyridin-4-yl)-phenyl]-3-(3-trifluoromethyl-phenyl)-urea] | >50 | < 501
Cn1ncc2c(-c3ccc(NC(=O)Nc4cc(C(F)(F)F)ccc4Cl)cc3)cncc21 [Example 1.13, 1-(2-Chloro-5-trifluoromethyl-phenyl)-3-[4-(1-methyl-1H-pyrazolo[3,4-c]pyridin-4-yl)-phenyl]-urea] | >50 | < 501
COc1cccc(-n2nc(C(C)(C)C)cc2NC(=O)Nc2ccc(-c3cncc4c3cnn4C)cc2)c1 [Example 15.5, 1-[5-tert-Butyl-2-(3-methoxy-phenyl)-2H-pyrazol-3-yl]-3-[4-(1-methyl-1H-pyrazolo[3,4-c]pyridin-4-yl)-phenyl]-urea] | >50 | < 501
Cn1ncc2c(-c3ccc(NC(=O)Nc4cc(C(C)(C)C)nn4-c4cncc(F)c4)c(F)c3)cncc21 [Example 15.13, 1-[5-tert-Butyl-2-(5-fluoro-pyridin-3-yl)-2H-pyrazol-3-yl]-3-[2-fluoro-4-(1-methyl-1H-pyrazolo[3,4-c]pyridin-4-yl)-phenyl]-urea] | >50 | < 501
CN1CCN(Cc2ccc(NC(=O)Nc3ccc(-c4cncc5c4cnn5CCO)cc3)cc2C(F)(F)F)CC1 [Example 8.6, 1-{4-[1-(2-Hydroxy-ethyl)-1H-pyrazolo[3,4-c]pyridin-4-yl]-phenyl}-3-[4-(4-methyl-piperazin-1-ylmethyl)-3-trifluoromethyl-phenyl]-urea] | >50 | < 501
CN(C)C1CCN(c2ccc(C(F)(F)F)cc2NC(=O)Nc2ccc(-c3cncc4c3cnn4C)cc2)C1 (stereo not drawn) [Example 13.12, 1-[2-(3-Dimethylamino-pyrrolidin-1-yl)-5-trifluoromethyl-phenyl]-3-[4-(1-methyl-1H-pyrazolo[3,4-c]pyridin-4-yl)-phenyl]-urea] | >50 | < 501
Cc1ccc(F)c(NC(=O)Nc2ccc(-c3cncc4c3cnn4C)cc2)c1 [Example 1.3, 1-(2-Fluoro-5-methyl-phenyl)-3-[4-(1-methyl-1H-pyrazolo[3,4-c]pyridin-4-yl)-phenyl]-urea] | >50 | < 501
Cn1ncc2c(-c3ccc(NC(=O)Nc4cc(C(C)(C)C)nn4-c4ccncc4)cc3)cncc21 [Example 15.10, 1-(5-tert-Butyl-2-pyridin-4-yl-2H-pyrazol-3-yl)-3-[4-(1-methyl-1H-pyrazolo[3,4-c]pyridin-4-yl)-phenyl]-urea] | >50 | < 501
CN(C(=O)Nc1cccc(C(F)(F)F)c1)c1ccc(-c2cncc3c2cnn3C)cc1 [Example 6.1, 1-Methyl-1-[4-(1-methyl-1H-pyrazolo[3,4-c]pyridin-4-yl)-phenyl]-3-(3-trifluoromethyl-phenyl)-urea] | >25 | 501 to 1000
COCCn1ncc2c(-c3ccc(NC(=O)Nc4cc(C)ccc4F)cc3)cncc21 [Example 12.3, 1-(2-Fluoro-5-methyl-phenyl)-3-{4-[1-(2-methoxy-ethyl)-1H-pyrazolo[3,4-c]pyridin-4-yl]-phenyl}-urea] | >50 | < 501
COCCn1ncc2c(-c3ccc(NC(=O)Nc4cc(C(F)(F)F)ccc4F)c(F)c3)cncc21 [Example 12.5, 1-{2-Fluoro-4-[1-(2-methoxy-ethyl)-1H-pyrazolo[3,4-c]pyridin-4-yl]-phenyl}-3-(2-fluoro-5-trifluoromethyl-phenyl)-urea] | >50 | < 501
CCn1ncc2c(-c3ccc(NC(=O)Nc4cc(C)ccc4F)c(F)c3)cncc21 [Example 11.3, 1-[4-(1-Ethyl-1H-pyrazolo[3,4-c]pyridin-4-yl)-2-fluoro-phenyl]-3-(2-fluoro-5-methyl-phenyl)-urea] | >50 | < 501
CC(C)c1cc(NC(=O)Nc2ccc(-c3cncc4c3cnn4C)cc2)n(-c2cccc(F)c2)n1 [Example 15.1, 1-[2-(3-Fluoro-phenyl)-5-isopropyl-2H-pyrazol-3-yl]-3-[4-(1-methyl-1H-pyrazolo[3,4-c]pyridin-4-yl)-phenyl]-urea] | >50 | < 501
CCn1ncc2c(-c3ccc(NC(=O)Nc4cccc(C(F)(F)F)c4)c(F)c3)cncc21 [Example 11.1, 1-[4-(1-Ethyl-1H-pyrazolo[3,4-c]pyridin-4-yl)-2-fluoro-phenyl]-3-(3-trifluoromethyl-phenyl)-urea] | >50 | < 501
CN(C)c1ccc(C(F)(F)F)cc1NC(=O)Nc1ccc(-c2cncc3c2cnn3C)cc1 [Example 13.11, 1-(2-Dimethylamino-5-trifluoromethyl-phenyl)-3-[4-(1-methyl-1H-pyrazolo[3,4-c]pyridin-4-yl)-phenyl]-urea] | >50 | < 501
